Test: Passive diffusion of fluorophore through tripartite DIB network (intestinal space, enterocyte, blood compartments)
Type: in vitro ADME
Design: half-life: dose or concentration left out as unconfirmed
Description: The first droplet 12 can mimic the intestinal space, the second droplet 14 can mimic an enterocyte, and the third droplet 16 can mimic the blood. The interior of each droplet 12, 14, 16 comprises a buffer (see Table 1) that mimics the pH and salt composition of the respective compartment. The barrier layer or artificial membrane between each pair of adjacent droplets can be an equal mixture of the phospholipids L-α-phosphatidylcholine (PC) and L-α-phosphatidylethanolamine (PE). The size of the droplets 116 can mimic the volume of human cells.
To prepare the lipid solutions, chloroform was removed from the lipid stock solutions by placing 10 mg (e.g., 400 μL of a 25 mgmL^−1 solution) of lipids in a 10 mL glass roundbottom flask, and rotating the flask under a stream of nitrogen gas to create a thin film. The flask was then placed in a desiccator under vacuum for 1 hour to remove residual solvent. […]
During use, the microfluidic devices were mounted in a heating platform set to 37° C. on a microscope stage (e.g., a Nikon Eclipse Ti2-E or a Nikon Eclipse Ti2-U inverted microscope) for visualization. […] Fluorescence and brightfield images for fluorescence experiments were captured using a measurement camera (e.g., a Hamamatsu ORCA Flash4.0 V3, with a Solis 1C cold white LED (e.g., from Thorlabs) and a GFP SemrockBrightline large field of view filter cube (e.g., from Nikon).
Reagents were introduced into the microfluidic devices using a pressure pump (e.g., an Elveflow OB1 MK3 pressure pump), four 1.5 mL Eppendorf tubes as reservoirs and four matched lengths of PTFE tubing. […] Following equilibration, the main chamber was monitored in Motion Blitz Director for quantification of device performance, and NIS Elements Advanced Research (Nikon, version 5.11.01) for fluorescence data collection. Following formation of a tripartite DIB network for a fluorescence experiment, flow was stopped from all reservoirs from within the Elveflow control software. […]

compartment preference in control triplets (100 µM): clear preference for pH 7.4 compartments
Papp (DIB network treated as two compartment model, intestinal space to enterocyte droplet, Equation (3), data of FIG. 6): (5.5±0.8)×10^−5 cms^−1
half-life (DIB network, intestinal space droplet (pH 6.5) into enterocyte droplet (pH 7.4), 37° C., exponential curve fit, FIG. 5, read-out: half-life (t1/2) of the fluorophore in the intestinal space (converted)): 1.8 min
SMILES: O=C1OC2(c3ccc(O)cc3Oc3cc(O)ccc32)c2ccccc21 [fluorescein]

Reference: patent US11673139B2, “Microfluidic platforms for drug discovery” (UVic Industry Partnerships Inc., priority 2020, dated 2023)
